{"source": "patent US8420657B2", "about": "(Novartis AG, priority 2008, dated 2013)"}
{"molecular_target": "T1, GST-JAK2(808-1132) (Homo sapiens, UniProt O60674)", "T1 construct": "GST-JAK2(808-1132); purchased Invitrogen (Carlsbad, USA) #4288", "T1 sequence (O60674 808-1132)": "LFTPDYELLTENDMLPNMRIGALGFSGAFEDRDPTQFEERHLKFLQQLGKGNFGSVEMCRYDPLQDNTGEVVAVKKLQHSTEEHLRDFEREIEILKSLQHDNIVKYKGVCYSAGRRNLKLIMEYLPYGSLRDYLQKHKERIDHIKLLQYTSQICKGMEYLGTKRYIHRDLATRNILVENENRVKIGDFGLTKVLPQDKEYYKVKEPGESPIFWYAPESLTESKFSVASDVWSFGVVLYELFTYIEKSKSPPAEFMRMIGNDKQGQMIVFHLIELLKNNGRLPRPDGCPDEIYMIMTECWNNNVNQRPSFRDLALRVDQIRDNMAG", "test": "JAK2 kinase assay (Caliper mobility shift, LabChip 3000)", "assay_type": "biochemical", "description": "All four kinases of the JAK/TYK-kinase family were used as purified recombinant GST-fusion proteins, containing the active kinase domains. GST-JAK1 (866-1154), GST-JAK3(811-1124), and GST-TYK2(888-1187) were expressed and purified by affinity chromatography at the EPK biology unit. GST-JAK2(808-1132) was purchased from Invitrogen (Carlsbad, USA, #4288).\nThe kinase assays were based on the Caliper mobility shift assay using the LabChip 3000 systems. This technology is similar to capillary electrophoresis and uses charge driven separation of substrate and product in a microfluidic chip.\nAll kinase reactions were performed in 384 well microtiter plates in a total reaction volume of 18 μl. The assay plates were prepared with 0.1 μl per well of test compound in the appropriate test concentration, as described under the section “preparation of compound dilutions”. The reactions were started by combining 9 μl of substrate mix (consisting of peptide and ATP) with 9 μl of kinase dilution. The reactions were incubated for 60 minutes at 30° C. and stopped by adding 70 μl of stop buffer (100 mM Hepes, 5% DMSO, 0.1% Coating reagent, 10 mM EDTA, 0.015% Brij 35).\nFluorescently labeled synthetic peptides were used as substrates in all reactions. A peptide derived from the sequence of IRS-1(IRS-1 peptide, SEQ ID NO: 1 FITC-Ahx-KKSRGDYMTMQIG-NH2) was used for JAK1 and TYK2 and a peptide named JAK3tide SEQ ID NO: 2 (FITC-GGEEEEYFELVKKKK-NH2) for JAK2 and JAK3. Specific assay conditions are described in Table1:\nThe terminated reactions were transferred to the Caliper LabChip 3000 reader and the turnover of each reaction was measured by determining the substrate/product ratio.\nTest compounds were dissolved in DMSO (10 mM) and transferred into 1.4 mL flat bottom or V-shaped Matrix tubes carrying a unique 2D matrix chip by individual compound hubs. The numbers of these chips were distinctively linked to the individual compound identification numbers. The stock solutions were stored at −20° C. if not used immediately. For the test procedure the vials were defrosted and identified by a scanner whereby a working sheet was generated that guided the subsequent working steps. Compound dilutions were made in 96 well plates. This format enabled the assay of maximally 40 individual test compounds at 8 concentrations (single points) including 4 reference compounds. The dilution protocol included the production of pre-dilution plates, master plates and assay plates:\nPre-dilution plates: 96 polypropylene well plates were used as pre-dilution plates. A total of 4 pre-dilution plates were prepared including 10 test compounds each on the plate positions A1-A10, one standard compound at A11 and one DMSO control at A12. All dilution steps were done on a HamiltonSTAR robot.\nMaster plates: 100 μL of individual compound dilutions including standard compound and controls of the 4 “pre-dilution plates” were transferred into a 384 “master plate” including the following concentrations 1,820, […], 182, 54.6, 18.2, 5.46, 1.82 and 0.546 μM, respectively in 90% of DMSO.\nAssay plates: Identical assay plates were then prepared by pipetting 100 nL each of compound dilutions of the master plates into 384-well “assay plates”. In the following the compounds were mixed with 9 μL of assays components plus 9 μL enzyme corresponding to a 1:181 dilution steps enabling the final concentration of 10, 3.0, 1.0, 0.3, 0.1, 0.03, 0.01 and 0.003 μM, respectively. The preparation of the master plates were handled by the Matrix PlateMate Plus robot and replication of assay plates by the HummingBird robot.", "units": {"IC50": "nM"}}
{"smiles": "CN1CCN(c2ccc(Nc3ncc4ccn(-c5ccc(C(O)C6CC6)cc5)c4n3)cn2)CC1", "note": "(stereo not drawn) [Example 277, Cyclopropyl-(4-{2-[6-(4-methyl-piperazin-1-yl)-pyridin-3-ylamino]-pyrrolo[2,3-d]pyrimidin-7-yl}-phenyl)-methanol]", "IC50": 8.3}
{"smiles": "CC(O)c1ccc(-n2ccc3cnc(Nc4ccc(N5CCN(C)CC5)nc4)nc32)cc1", "note": "(stereo not drawn) [Example 279, 1-(4-{2-[6-(4-Methyl-piperazin-1-yl)-pyridin-3-ylamino]-pyrrolo[2,3-d]pyrimidin-7-yl}-phenyl)-ethanol]", "IC50": 4}
{"smiles": "CN1CCN(c2ccc(Nc3ncc4ccn(-c5cc(F)c(CO)c(F)c5)c4n3)cn2)CC1", "note": "[Example 280, (2,6-Difluoro-4-{2-[6-(4-methyl-piperazin-1-yl)-pyridin-3-ylamino]-pyrrolo[2,3-d]pyrimidin-7-yl}-phenyl)-methanol]", "IC50": 3.5}
{"smiles": "O=C(c1c(F)cc(-n2ccc3cnc(Nc4ccnc(N5CCNC6(CC6)C5)c4)nc32)cc1F)N1CCOCC1", "note": "[Example 281, (4-{2-[2-(4,7-Diaza-spiro[2.5]oct-7-yl)-pyridin-4-ylamino]-pyrrolo[2,3-d]pyrimidin-7-yl}-2,6-difluoro-phenyl)-morpholin-4-yl-methanone]", "IC50": 24}
{"smiles": "CS(=O)(=O)c1ccc(-n2ccc3cnc(Nc4ccc(N5CCNCC5)nc4)nc32)cc1", "note": "[Example 282, [7-(4-Methanesulfonyl-phenyl)-7H-pyrrolo[2,3-d]pyrimidin-2-yl]-(6-piperazin-1-yl-pyridin-3-yl)-amine]", "IC50": 82}
{"smiles": "CN1CCN(c2ccc(Nc3ncc4ccn(-c5ccc(N6CCCC6=O)cc5)c4n3)cn2)CC1", "note": "[Example 283, 1-(4-{2-[6-(4-Methyl-piperazin-1-yl)-pyridin-3-ylamino]-pyrrolo[2,3-d]pyrimidin-7-yl}-phenyl)-pyrrolidin-2-one]", "IC50": 23}
{"smiles": "CCN1CCN(c2ccc(Nc3ncc4ccn(-c5ccc(CC(=O)N6CCN(C)CC6)cc5)c4n3)cc2C)CC1", "note": "[Example 284, 2-(4-{2-[4-(4-Ethyl-piperazin-1-yl)-3-methyl-phenylamino]-pyrrolo[2,3-d]pyrimidin-7-yl}-phenyl)-1-(4-methyl-piperazin-1-yl)-ethanone]", "IC50": 3.7}
{"smiles": "CCN1CCN(c2ccc(Nc3ncc4ccn(-c5ccc(CN6CCOCC6)c(F)c5)c4n3)cc2C)CC1", "note": "[Example 285, [4-(4-Ethyl-piperazin-1-yl)-3-methyl-phenyl]-[7-(3-fluoro-4-morpholin-4-ylmethyl-phenyl)-7H-pyrrolo[2,3-d]pyrimidin-2-yl]-amine]", "IC50": "< 3"}
{"smiles": "O=C(c1ccc(-n2ccc3cnc(Nc4ccc(CN5CCNCC5)cc4)nc32)cc1F)N1CCOCC1", "note": "[Example 313, {2-Fluoro-4-[2-(4-piperazin-1-ylmethyl-phenylamino)-pyrrolo[2,3-d]pyrimidin-7-yl]-phenyl}-morpholin-4-yl-methanone]", "IC50": 3.7}
{"smiles": "O=C(c1c(F)cc(-n2ccc3cnc(Nc4ccc(CN5CCNCC5)cc4)nc32)cc1F)N1CCOCC1", "note": "[Example 314, {2,6-Difluoro-4-[2-(4-piperazin-1-ylmethyl-phenylamino)-pyrrolo[2,3-d]pyrimidin-7-yl]-phenyl}-morpholin-4-yl-methanone]", "IC50": "< 3"}
{"smiles": "Fc1cc(-n2ccc3cnc(Nc4ccc(CN5CCNCC5)cc4)nc32)cc(F)c1CN1CCOCC1", "note": "[Example 315, [7-(3,5-Difluoro-4-morpholin-4-ylmethyl-phenyl)-7H-pyrrolo[2,3-d]pyrimidin-2-yl]-(4-piperazin-1-ylmethyl-phenyl)-amine]", "IC50": "< 3"}
{"smiles": "CCN1CCN(Cc2ccc(Nc3ncc4ccn(-c5cc(F)c(CN6CCOCC6)c(F)c5)c4n3)nc2)CC1", "note": "[Example 316, [7-(3,5-Difluoro-4-morpholin-4-ylmethyl-phenyl)-7H-pyrrolo[2,3-d]pyrimidin-2-yl]-[5-(4-ethyl-piperazin-1-ylmethyl)-pyridin-2-yl]-amine]", "IC50": 73}
{"smiles": "CCN1CCN(Cc2ccc(Nc3ncc4ccn(-c5ccc(S(C)(=O)=O)cc5)c4n3)nc2)CC1", "note": "[Example 317, [5-(4-Ethyl-piperazin-1-ylmethyl)-pyridin-2-yl]-[7-(4-methanesulfonyl-phenyl)-7H-pyrrolo[2,3-d]pyrimidin-2-yl]-amine]", "IC50": 940}
{"smiles": "CC(=O)N1CCN(Cc2ccc(Nc3ncc4ccn(-c5cc(F)c(CN6CCOCC6)c(F)c5)c4n3)cc2)CC1", "note": "[Example 318, 1-(4-{4-[7-(3,5-Difluoro-4-morpholin-4-ylmethyl-phenyl)-7H-pyrrolo[2,3-d]pyrimidin-2-ylamino]-benzyl}-piperazin-1-yl)-ethanone]", "IC50": "< 3"}
{"smiles": "CC(=O)N1CCN(Cc2ccc(Nc3ncc4ccn(-c5ccc(S(C)(=O)=O)cc5)c4n3)cc2)CC1", "note": "[Example 319, 1-(4-{4-[7-(4-Methanesulfonyl-phenyl)-7H-pyrrolo[2,3-d]pyrimidin-2-ylamino]-benzyl}-piperazin-1-yl)-ethanone]", "IC50": "< 3"}
{"smiles": "CC(C)(C)OC(=O)N1CCC(n2cc(Nc3ncc4ccn(-c5cc(F)c(CN6CCOCC6)c(F)c5)c4n3)cn2)CC1", "note": "[Example 320, 4-{4-[7-(3,5-Difluoro-4-morpholin-4-ylmethyl-phenyl)-7H-pyrrolo[2,3-d]pyrimidin-2-ylamino]-pyrazol-1-yl}-piperidine-1-carboxylic acid tert-butyl ester]", "IC50": 9.5}
{"smiles": "Fc1cc(-n2ccc3cnc(Nc4cnn(C5CCNCC5)c4)nc32)cc(F)c1CN1CCOCC1", "note": "[Example 321, [7-(3,5-Difluoro-4-morpholin-4-ylmethyl-phenyl)-7H-pyrrolo[2,3-d]pyrimidin-2-yl]-(1-piperidin-4-yl-1H-pyrazol-4-yl)-amine]", "IC50": "< 3"}
{"smiles": "CC(=O)N1CCN(Cc2ccc(Nc3ncc4ccn(-c5ccc(C(=O)N6CCOCC6)c(F)c5)c4n3)cc2)CC1", "note": "[Example 322, 1-[4-(4-{7-[3-Fluoro-4-(morpholine-4-carbonyl)-phenyl]-7H-pyrrolo[2,3-d]pyrimidin-2-ylamino}-benzyl)-piperazin-1-yl]-ethanone]", "IC50": "< 3"}
{"smiles": "CC(=O)N1CCN(Cc2ccc(Nc3ncc4ccn(-c5cc(F)c(C(=O)N6CCOCC6)c(F)c5)c4n3)cc2)CC1", "note": "[Example 323, 1-[4-(4-{7-[3,5-Difluoro-4-(morpholine-4-carbonyl)-phenyl]-7H-pyrrolo[2,3-d]pyrimidin-2-ylamino}-benzyl)-piperazin-1-yl]-ethanone]", "IC50": 3.2}
{"smiles": "Cc1ccc(Nc2ncc3ccn(-c4ccc(C(=O)N5CCOCC5)c(F)c4)c3n2)cc1", "note": "[Example 324, [2-Fluoro-4-(2-p-tolylamino-pyrrolo[2,3-d]pyrimidin-7-yl)-phenyl]-morpholin-4-yl-methanone]", "IC50": 26}
{"smiles": "Cc1ccc(Nc2ncc3ccn(-c4cc(F)c(CN5CCOCC5)c(F)c4)c3n2)cc1", "note": "[Example 325, [7-(3,5-Difluoro-4-morpholin-4-ylmethyl-phenyl)-7H-pyrrolo[2,3-d]pyrimidin-2-yl]-p-tolyl-amine]", "IC50": 25}
{"smiles": "Cc1ccc(Nc2ncc3ccn(-c4ccc(C(=O)N5CCOCC5)c(F)c4)c3n2)cc1CN1CCN(C)CC1", "note": "[Example 326, (2-Fluoro-4-{2-[4-methyl-3-(4-methyl-piperazin-1-ylmethyl)-phenylamino]-pyrrolo[2,3-d]pyrimidin-7-yl}-phenyl)-morpholin-4-yl-methanone]", "IC50": "< 3"}
{"smiles": "Cc1ccc(Nc2ncc3ccn(-c4ccc(C(=O)N5CCOCC5)c(F)c4)c3n2)cc1CN1CCOCC1", "note": "[Example 327, {2-Fluoro-4-[2-(4-methyl-3-morpholin-4-ylmethyl-phenylamino)-pyrrolo[2,3-d]pyrimidin-7-yl]-phenyl}-morpholin-4-yl-methanone]", "IC50": "< 3"}
{"smiles": "Cc1ccc(Nc2ncc3ccn(-c4ccc(S(C)(=O)=O)cc4)c3n2)cc1CN1CCOCC1", "note": "[Example 328, [7-(4-Methanesulfonyl-phenyl)-7H-pyrrolo[2,3-d]pyrimidin-2-yl]-(4-methyl-3-morpholin-4-ylmethyl-phenyl)-amine]", "IC50": 16}
